Source: the supplement of paper PMC5752671
Where a name gives a salt, the structure may show the parent alone.

What was measured:
Conditions in all cases: 4 days
EOL-1 = assay: IC50 (cell viability) (log10 M)
Method in brief: (§1)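 Listed values are the IC50, taken from fitted curves. Each is the log10 M concentration at which a four-parameter curve crosses 50% viability; where that point is not reached, the highest concentration tested is given. Fourteen leukemia cell lines on extracellular-matrix-coated 384-well plates were exposed in duplicate to eight drug concentrations within 10^–12–10^–4 M, and viability was read with CellTiter-Glo after 4 days.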

HL60 [1] = assay: IC50 (cell viability) (log10 M)
Method in brief: as §1

KASUMI1 [2] = assay: IC50 (cell viability) (log10 M)
Method in brief: as §1

KG1 = assay: IC50 (cell viability) (log10 M)
Method in brief: as §1

MOLM/13 [3] = assay: IC50 (cell viability) (log10 M)
Method in brief: as §1

MOLM/16 = assay: IC50 (cell viability) (log10 M)
Method in brief: as §1

MV4.11 [4] = assay: IC50 (cell viability) (log10 M)
Method in brief: as §1

NB4 = assay: IC50 (cell viability) (log10 M)
Method in brief: as §1

OCI-AML2 = assay: IC50 (cell viability) (log10 M)
Method in brief: as §1

OCI-AML3 = assay: IC50 (cell viability) (log10 M)
Method in brief: as §1

PL-21 [5] = assay: IC50 (cell viability) (log10 M)
Method in brief: as §1

SKM1 = assay: IC50 (cell viability) (log10 M)
Method in brief: as §1

THP-1 [6] = assay: IC50 (cell viability) (log10 M)
Method in brief: as §1

U937 = assay: IC50 (cell viability) (log10 M)
Method in brief: as §1

HL60 [7] = assay: area under dose-response curve (cell viability) (AUC (arbitrary, % viability x log concentration)); higher = less sensitive (more viable)
Method in brief: (§2)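 Fourteen leukemia cell lines were plated on extracellular-matrix-coated 384-well plates. Drugs were added robotically the next day at eight concentrations spanning 4–5 logs within 10^–12–10^–4 M, tailored per drug, in duplicate. Viability was read with CellTiter-Glo after 4 days. The value is the area under a four-parameter sigmoid fitted to the duplicate-averaged dose-response.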

KASUMI1 [8] = assay: as above
Method in brief: as §2

MOLM/13 [9] = assay: as above
Method in brief: as §2

MV4.11 [10] = assay: as above
Method in brief: as §2

PL-21 [11] = assay: as above
Method in brief: as §2

THP-1 [12] = assay: as above
Method in brief: as §2

Row | SMILES | IC50 (log10 M) (EOL-1) | IC50 (log10 M) (HL60 [1]) | IC50 (log10 M) (KASUMI1 [2]) | IC50 (log10 M) (KG1) | IC50 (log10 M) (MOLM/13 [3]) | IC50 (log10 M) (MOLM/16) | IC50 (log10 M) (MV4.11 [4]) | IC50 (log10 M) (NB4) | IC50 (log10 M) (OCI-AML2) | IC50 (log10 M) (OCI-AML3) | IC50 (log10 M) (PL-21 [5]) | IC50 (log10 M) (SKM1) | IC50 (log10 M) (THP-1 [6]) | IC50 (log10 M) (U937) | area under dose-response curve (HL60 [7]) | area under dose-response curve (KASUMI1 [8]) | area under dose-response curve (MOLM/13 [9]) | area under dose-response curve (MV4.11 [10]) | area under dose-response curve (PL-21 [11]) | area under dose-response curve (THP-1 [12])
1 | CCN(CC)CCCC(C)Nc1c2ccc(Cl)cc2nc2ccc(OC)cc12 (stereo not given) [Acrichine] | -5.82 | -5.35 | -5.52 | -5.44 | -5.57 | -5.52 | -5.79 | -5.46 | -5.69 | -5.45 | -5.46 | -5.47 | -5.33 | -5.48 | 673 | 639 | 598 | 615 | 570 | 661
2 | Nc1cc(C(F)(F)F)c(-c2cc(N3CCOCC3)nc(N3CCOCC3)n2)cn1 [BKM-120] | -6.36 | -5.74 | -5.95 | -5.83 | -5.82 | -6.53 | -5.78 | -5.9 | -5.74 | -5.84 | -5.86 | -5.8 | -5.85 | -6.45 | 613 | 602 | 576 | 599 | 523 | 602
3 | NC(=O)c1ccc2nc(-c3ccc(Oc4ccc(Cl)cc4)cc3)[nH]c2c1 [BML 277] | -5.36 | > -5 | > -5 | > -5 | > -5 | -5.35 | > -5 | > -5 | > -5 | > -5 | > -5 | > -5 | > -5 | > -5 | 739 | 735 | 682 | 715 | 628 | 714
4 | NC(=O)c1ccc(I)c([N+](=O)[O-])c1 [BSI-201] | > -5 | > -5 | > -5 | > -5 | > -5 | > -5 | > -5 | > -5 | > -5 | > -5 | > -5 | > -5 | > -5 | > -5 | 717 | 722 | 689 | 683 | 624 | 681
5 | CC(C)C[C@H](NC(=O)[C@H](Cc1ccccc1)NC(=O)c1cnccn1)B(O)O [Bortezomib] | -8.29 | -8.05 | -8.06 | -8.25 | -8.37 | -8.07 | -8.1 | -8.38 | -8.06 | -8.3 | -8.04 | -8.6 | -8.06 | -8.32 | 334 | 338 | 304 | 338 | 307 | 340
6 | CS(=O)(=O)OCCCCOS(C)(=O)=O [Busulfan] | -5.23 | > -5 | > -5 | > -5 | > -5 | > -5 | -5.24 | > -5 | > -5 | > -5 | > -5 | > -5 | > -5 | > -5 | 653 | 651 | 633 | 641 | 621 | 636
7 | CC[C@H](Nc1ncnc2[nH]cnc12)c1nc2cccc(F)c2c(=O)n1-c1ccccc1 [CAL-101] | -5.16 | > -5 | -5.08 | > -5 | > -5 | -5.22 | -5.3 | > -5 | > -5 | > -5 | > -5 | > -5 | > -5 | > -5 | 644 | 552 | 662 | 577 | 624 | 632
8 | O=C(O)C1(C(=O)O)CCC1.[NH2-].[NH2-].[Pt+2] [Carboplatin] | -5.16 | > -5 | > -5 | > -5 | > -5 | > -5 | -5.34 | > -5 | -5.37 | > -5 | > -5 | > -5 | -5.04 | > -5 | 751 | 749 | 684 | 631 | 644 | 737
9 | N.N.[Cl][Pt][Cl] [Cisplatin] | > -5 | > -5 | > -5 | > -5 | > -5 | > -5 | > -5 | > -5 | > -5 | > -5 | > -5 | > -5 | > -5 | > -5 | 764 | 731 | 684 | 719 | 639 | 761
10 | Nc1nc(Cl)nc2c1ncn2[C@H]1C[C@H](O)[C@@H](CO)O1 [Cladribine] | < -8.48 | -7.09 | -6.94 | -6.79 | -7.74 | -7.36 | < -8.48 | -7.52 | < -8.48 | -8.35 | -8.25 | -6.97 | -6.82 | -8.47 | 515 | 512 | 329 | 218 | 269 | 496
11 | Nc1nc(Cl)nc2c1ncn2[C@@H]1O[C@H](CO)[C@@H](O)[C@@H]1F [Clofarabine] | -7.52 | -6.93 | -6.93 | -6.93 | -6.86 | -6.78 | -6.57 | -6.74 | -7.05 | -7.09 | -7.51 | -6.7 | -6.56 | -7.66 | 571 | 574 | 481 | 518 | 353 | 562
12 | C[C@@H](Oc1cc(-c2cnn(C3CCNCC3)c2)cnc1N)c1c(Cl)ccc(F)c1Cl [Crizotinib] | -5.82 | -5.49 | -5.64 | -5.49 | -5.75 | -5.86 | -5.68 | -5.61 | -5.5 | -5.41 | -5.59 | -5.49 | -5.41 | -5.61 | 696 | 639 | 562 | 591 | 562 | 700
13 | Nc1ccn([C@@H]2O[C@H](CO)[C@@H](O)[C@@H]2O)c(=O)n1 [Cytarabine HCl] | < -7.34 | -7.08 | < -7.34 | -7.29 | < -7.34 | -7.19 | -7.21 | < -7.34 | < -7.34 | -6.73 | < -7.34 | -6.81 | -6.53 | < -7.34 | 410 | 383 | 296 | 378 | 224 | 452
14 | Cc1nc(Nc2ncc(C(=O)Nc3c(C)cccc3Cl)s2)cc(N2CCN(CCO)CC2)n1 [Dasatinib] | -7.46 | > -5 | > -5 | -5.39 | -5.55 | -5.46 | -5.37 | > -5 | -5.37 | > -5 | -5.46 | > -5 | > -5 | > -5 | 761 | 469 | 519 | 613 | 579 | 734
15 | COc1cccc2c1C(=O)c1c(O)c3c(c(O)c1C2=O)C[C@@](O)(C(C)=O)C[C@@H]3O[C@H]1C[C@H](N)[C@H](O)[C@H](C)O1 [Daunorubicin HCl] | -8.26 | -7.03 | -6.96 | -6.76 | -7.09 | -6.96 | -8.28 | -7.23 | -7.03 | -6.98 | -6.92 | -7.2 | -7 | -7 | 479 | 440 | 407 | 339 | 427 | 480
16 | Nc1ncn([C@H]2C[C@H](O)[C@@H](CO)O2)c(=O)n1 [Decitabine] | < -8.34 | -5.1 | -5.3 | -6.39 | < -8.34 | < -8.34 | -5.06 | -8.3 | -7.26 | -6.05 | -6.43 | -5.53 | -5.82 | -6.97 | 582 | 516 | 235 | 303 | 461 | 530
17 | Cn1cc(C2=C(c3cn(C4CCN(Cc5ccccn5)CC4)c4ccccc34)C(=O)NC2=O)c2ccccc21 [Enzastaurin] | > -5 | > -5 | > -5 | > -5 | > -5 | > -5 | -5.11 | > -5 | > -5 | > -5 | > -5 | > -5 | > -5 | > -5 | 745 | 700 | 650 | 690 | 646 | 703
18 | C#Cc1cccc(Nc2ncnc3cc(OCCOC)c(OCCOC)cc23)c1 [Erlotinib HCl] | -5.67 | > -5 | > -5 | -5.31 | -5.14 | -5.69 | -5.42 | > -5 | > -5 | > -5 | > -5 | -5.01 | > -5 | -5.02 | 696 | 683 | 660 | 628 | 610 | 699
19 | CCc1cccc2c3c([nH]c12)C(CC)(CC(=O)O)OCC3 (stereo not given) [Etodolac] | > -5 | > -5 | > -5 | > -5 | > -5 | > -5 | > -5 | > -5 | > -5 | > -5 | > -5 | > -5 | > -5 | > -5 | 694 | 678 | 654 | 705 | 626 | 705
20 | CO[C@H]1C[C@@H]2CC[C@@H](C)[C@@](O)(O2)C(=O)C(=O)N2CCCC[C@H]2C(=O)O[C@H]([C@H](C)C[C@@H]2CC[C@@H](OCCO)[C@H](OC)C2)CC(=O)[C@H](C)/C=C(\C)[C@@H](O)[C@@H](OC)C(=O)[C@H](C)C[C@H](C)/C=C/C=C/C=C/1C [Everolimus] | -8.2 | > -5 | > -5 | > -5 | -5.39 | -5.83 | -6 | > -5 | -5.02 | > -5 | -5.1 | -5.4 | > -5 | -7.7 | 568 | 471 | 446 | 392 | 438 | 502
21 | CSCC[C@H](NC(=O)c1ccc(NC[C@@H](N)CS)cc1-c1ccccc1)C(=O)O [FTI-276] | > -5 | > -5 | > -5 | > -5 | > -5 | > -5 | > -5 | > -5 | > -5 | > -5 | > -5 | > -5 | > -5 | > -5 | 753 | 722 | 641 | 641 | 601 | 765
